Data reported in patent US7001906B2, “Pyrido-pyrido-pyrrolo pyrrolo-indole and pyrido-pyrrolo pyrrolo carbazole derivatives, method for the production thereof and pharmaceutical compositions containing said derivatives” (Les Laboratoires Servier, priority 2001, dated 2006).

How the values were obtained:
Type in all cases: cell-based
neuroblastoma SK-N-MC = assay: In vitro cytotoxicity on human cell lines: neuroblastoma SK-N-MC; settings: 96 h, incubation 4 days
Procedure: (§1) Murine leukaemia L1210 was used in vitro. The cells are cultured in RPMI 1640 complete culture medium containing 10% foetal calf serum, 2 mM glutamine, 50 units/ml of penicillin, 50 μg/ml of streptomycin and 10 mM Hepes, pH: 7.4. The cells are distributed on microplates and exposed to the cytotoxic compounds for 4 doubling periods, or 48 hours. The number of viable cells is then quantified by means of a colorimetric assay, the Microculture Tetrazolium Assay (J. Carmichael et al., Cancer Res., 47, 936–942, (1987)). The results are expressed as IC50, the concentration of cytotoxic agent which inhibits the proliferation of the treated cells by 50%.
(§2) The compounds of the invention were also tested on human cell lines according to the same experimental protocol as that described for murine leukaemia L1210, but with incubation times of 4 days instead of 2 days.

[1] = test system: epidermoid carcinoma A431; assay: In vitro cytotoxicity on human cell lines: epidermoid carcinoma A431; settings: A-431, 96 h, epidermoid carcinoma A431, incubation 4 days
Procedure: as §1, §2

[2] = test system: small cell lung carcinoma H 69; assay: In vitro cytotoxicity on human cell lines: small cell lung carcinoma H 69; settings: 96 h, small cell lung carcinoma H 69, incubation 4 days
Procedure: as §1, §2

Murine leukaemia L1210 = assay: In vitro cytotoxicity, murine leukaemia L1210 (Microculture Tetrazolium Assay); settings: Mus musculus; L1210, exposure 4 doubling periods, or 48 hours; read-out: IC50, the concentration of cytotoxic agent which inhibits the proliferation of the treated cells by 50%
Procedure: as §1

Compound | IC50 (neuroblastoma SK-N-MC) [µM] | IC50 [1] [µM] | IC50 [2] [µM] | IC50 (Murine leukaemia L1210) [µM]
O=C1NC(=O)c2c1c1c3ccccc3[nH]c1c1c2c2cccnc2n1[C@@H]1O[C@H](CO)[C@@H](O)[C@H](O)[C@H]1O [Example 3, 13-(β-D-glucopyranosyl)-12,13-dihydro-5H-pyrido[3′,2′:4,5]pyrrolo-[2,3-a]pyrrolo[3,4-c]carbazole-5,7(6H)-dione] | < 1 | < 1 | < 1 | –
O=C1NC(=O)c2c1c1c3cc(Br)ccc3[nH]c1c1c2c2cccnc2n1[C@@H]1O[C@H](CO)[C@@H](O)[C@H](O)[C@H]1O [Example 4, 9-bromo-13-(β-D-glucopyranosyl)-12,13-dihydro-5H-pyrido-[3′,2′:4,5]pyrrolo[2,3-a]pyrrolo [3,4-c]carbazole-5,7(6H)-dione] | < 1 | < 1 | < 1 | < 0.1
O=C1NC(=O)c2c1c1c3cc([N+](=O)[O-])ccc3[nH]c1c1c2c2cccnc2n1[C@@H]1O[C@H](CO)[C@@H](O)[C@H](O)[C@H]1O [Example 5, 9-nitro-13-(β-D-glucopyranosyl)-12,13-dihydro-5H-pyrido-[3′,2′:4,5]pyrrolo[2,3-a]pyrrolo[3,4-c]carbazole-5,7(6H)-dione] | < 1 | < 1 | < 1 | < 0.1
O=C1NC(=O)c2c1c1c3cccnc3[nH]c1c1c2c2ccccc2n1[C@@H]1O[C@H](CO)[C@@H](O)[C@H](O)[C@H]1O [Example 9, 12-(β-D-glucopyranosyl)-12,13-dihydro-5H-pyrido[3′,2′:4,5]pyrrolo-[2,3-a]pyrrolo[3,4-c]carbazole-5,7(6H)-dione] | – | – | – | < 0.1
O=C1NC(=O)c2c1c1c3cccnc3[nH]c1c1c2c2cccnc2n1[C@@H]1O[C@H](CO)[C@@H](O)[C@H](O)[C@H]1O [Example 12, 12-(β-D-glucopyranosyl)-12,13-dihydro-5H-pyrido[2,3-b]-pyrido[3′,2′:4,5]pyrrolo[3,2-g]pyrrolo[3,4-e]indole-5,7(6H)-dione] | – | – | – | < 0.1
CN1C(=O)c2c(c3c4cccnc4n([C@@H]4O[C@H](CO)[C@@H](O)[C@H](O)[C@H]4O)c3c3[nH]c4ccccc4c23)C1=O [Example 17, 13-(β-D-glucopyranosyl)-6-methyl-12,13-dihydro-5H-pyrido-[3′,2′:4,5]pyrrolo [2,3-a]pyrrolo [3,4-c]carbazole-5,7(6H)-dione] | < 1 | < 1 | < 1 | –
CN1C(=O)c2c(c3c4cccnc4n([C@@H]4O[C@H](CO)[C@@H](O)[C@H](O)[C@H]4O)c3c3[nH]c4ccc(Br)cc4c23)C1=O [Example 19, 13-(β-D-glucopyranosyl)-9-bromo-6-methyl-12,13-dihydro-5H-pyrido[3′,2′:4,5]pyrrolo[2,3-a]pyrrolo[3,4-c]carbazole-5,7(6H)-dione] | < 1 | < 1 | < 1 | –
